This note sets out measurements from patent publication EP1377579B1 (Aventis Pharmaceuticals Inc., priority 2000, dated 2002).

pIC50: −log10 of the molar value. Structures can show the parent of a compound that is named as a salt.

One assay addresses cdk4/cyclin D1 (Homo sapiens, UniProt P11802). As to the kind of experiment: Cyclin-dependent kinase assay, cdk4/cyclin D1. The class given is biochemical. As to conditions: cyclin D1/cdk4; GST-pRb substrate, 10 µM ATP.
For the next assay, the system named is PC-3. As to the kind of experiment: In vitro proliferation assay (MTT), PC-3. The class given is cell-based, human. To be noted: Homo sapiens, PC-3, MTT assay; value (SD, n) where given; read-out: PC-3 Prostate (IC50 µM). Put shortly:
(§1)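 IC50 values come from absorbance at 570 nm after MTT staining of cells grown with compound for 3 days. Seeding density was 1000 to 2500 cells/well, depending on the line.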

A further assay has as its system MDA-MB-435. As to the kind of experiment: In vitro proliferation assay (MTT), MDA-MB-435. Format: cell-based, human. To be noted: Homo sapiens, MDA-MB-435, MTT assay; value (SD, n) where given; read-out: MB-435 Breast (IC50 µM). An outline of the steps:
as §1

The subject of a further assay is HL-60 Human Leukemia. The assay is described as follows: HL-60 human leukemia xenograft in nude mice. Format: in vivo. As to conditions: Table 5. How it is done:
(§2) Antitumor efficacy is assessed using two subcutaneous human tumor xenograft models. The studies are performed using conventional assay techniques. Briefly, HL-60 (leukemia, 5 x10^5 cells) and PC-3 (prostate, 5 x 10^6 cells) tumor cells are injected subcuateously into nude mice (Crl-CD1-Br-nu, Charles River Laboratory, Wilmington, MA). Dosing with compounds began when tumors reached 50 to 100 mm^3. The dose route/schedule for the test compounds is ip/qld (5x/wk). The test doses are set based on the maximum tolerated dose (MTD). […] The test doses for the efficacy studies are set at 1/3rd the MTD (low dose) and the MTD (high dose). The results are shown in Tables 4 and 5 (HL-60, leukemia) (PC-3, prostate cancer). The length of the treatment phase is dependent on the tumor growth rate for the two models. This treatment phase is typically about 3 weeks for the HL-60 model and about 5 weeks for the PC-3 model. […] Dosing with flavopiridol is for the same time frame as for the experimental compounds in both xenograft models. Tumor volume (twice weekly) and body weights (once weekly) are monitored throughout the course of the treatment phase of the experiment. Tumor sizes are measured by external caliper measurements of protruding tumor. Volumes are calculated using the following formula: volume =½ (a x b2), where b is the smaller of two perpendicular diameters.
(In general: A xenograft is tissue or cells of one species grown in another, often human tumour cells in immunodeficient mice.)

The test system of another assay is Jurkat. The assay is described as follows: In vitro proliferation assay (MTT), Jurkat. The class given is cell-based. As to conditions: Homo sapiens, MTT assay, value (SD, n) where given, read-out: Jurkat Leuk. (IC50 µM). An outline of the steps: (§3)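 Tetrazolium (MTT) proliferation test following a 3-day treatment with compound. Read-out is optical density at 570 nm after DMSO solubilization.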
Background: Formazan colour is commonly taken as a measure of viable cells.

For the next assay, the target named is cdk1/cyclin B (Homo sapiens, UniProt P06493). As to the kind of experiment: Cyclin-dependent kinase assay, cdk1/cyclin B. To be noted: CDK1 IC50, nM, Histone H1, 10 µM ATP.
The subject of another assay is HL-60. The assay is described as follows: In vitro proliferation assay (MTT), HL-60. Format: cell-based. To be noted: Homo sapiens, HL-60; MTT assay; value (SD, n) where given; read-out: HL-60 Leuk. (IC50 µM). Put shortly: as §3
The target in the next assay is cdk2/cyclin E (Homo sapiens, UniProt P24941). The assay is described as follows: Cyclin-dependent kinase assay, cdk2/cyclin E. To be noted: CDK2 IC50, nM, GST-pRb substrate, 10 µM ATP.
For assay [1], the system named is PC-3 Human Prostate Tumors. As to the kind of experiment: PC-3 human prostate tumor xenograft in nude mice. Format: in vivo. As to conditions: Table 5. How it is done:
as §2

The next assay concerns Colo-205. As to the kind of experiment: In vitro proliferation assay (MTT), Colo-205. Format: cell-based. To be noted: Homo sapiens, COLO 205; MTT assay; value (SD, n) where given; read-out: Colo-205 Colon (IC50 µM). An outline of the steps: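 Colo-205 cells were seeded at 1000–2500 cells/well and allowed to attach overnight, then exposed to compound for 3 days. Viable cells were measured by MTT reduction (2–4 h, 37 °C), with DMSO-solubilised dye read at 570 nm. IC50 was derived from concentration–response data.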

For another assay, the system named is NCI-H460. The assay is described as follows: In vitro proliferation assay (MTT), NCI-H460. Format: cell-based. To be noted: Homo sapiens, NCI-H460; MTT assay; value (SD, n) where given; read-out: H-460 Lung (IC50 µM). Put shortly: as §3

Chain of cdk1/cyclin B (P06493 whole entry): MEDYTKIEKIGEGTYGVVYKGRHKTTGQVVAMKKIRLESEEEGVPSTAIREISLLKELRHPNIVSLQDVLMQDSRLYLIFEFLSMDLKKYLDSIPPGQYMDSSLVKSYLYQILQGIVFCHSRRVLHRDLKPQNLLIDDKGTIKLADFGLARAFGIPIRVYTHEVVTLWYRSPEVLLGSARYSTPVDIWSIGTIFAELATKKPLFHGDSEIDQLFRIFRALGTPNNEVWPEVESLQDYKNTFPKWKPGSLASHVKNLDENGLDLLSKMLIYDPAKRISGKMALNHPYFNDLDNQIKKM
Chain of cdk1/cyclin B (P14635 whole entry partner): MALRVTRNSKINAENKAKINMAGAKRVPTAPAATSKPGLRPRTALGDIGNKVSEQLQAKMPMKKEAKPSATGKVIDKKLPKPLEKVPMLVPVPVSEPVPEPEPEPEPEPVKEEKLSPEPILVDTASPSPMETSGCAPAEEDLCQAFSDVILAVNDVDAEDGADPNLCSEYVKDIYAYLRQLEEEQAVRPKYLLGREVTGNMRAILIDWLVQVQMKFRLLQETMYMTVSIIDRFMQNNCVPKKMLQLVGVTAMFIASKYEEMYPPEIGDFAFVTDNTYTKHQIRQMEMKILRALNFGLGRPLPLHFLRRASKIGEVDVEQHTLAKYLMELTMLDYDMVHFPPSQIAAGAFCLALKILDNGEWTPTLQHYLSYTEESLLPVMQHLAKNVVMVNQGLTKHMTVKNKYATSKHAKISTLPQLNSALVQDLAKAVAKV
Chain of cdk4/cyclin D1 (P11802 whole entry): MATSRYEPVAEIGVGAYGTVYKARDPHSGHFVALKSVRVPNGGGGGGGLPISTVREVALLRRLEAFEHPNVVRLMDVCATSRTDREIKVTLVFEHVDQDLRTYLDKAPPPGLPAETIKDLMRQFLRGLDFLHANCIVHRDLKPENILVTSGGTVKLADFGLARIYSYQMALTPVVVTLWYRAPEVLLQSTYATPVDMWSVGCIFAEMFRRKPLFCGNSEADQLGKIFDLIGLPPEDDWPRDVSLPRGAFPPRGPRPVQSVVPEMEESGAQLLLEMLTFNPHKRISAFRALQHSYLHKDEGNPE
Chain of cdk4/cyclin D1 (P24385 whole entry partner): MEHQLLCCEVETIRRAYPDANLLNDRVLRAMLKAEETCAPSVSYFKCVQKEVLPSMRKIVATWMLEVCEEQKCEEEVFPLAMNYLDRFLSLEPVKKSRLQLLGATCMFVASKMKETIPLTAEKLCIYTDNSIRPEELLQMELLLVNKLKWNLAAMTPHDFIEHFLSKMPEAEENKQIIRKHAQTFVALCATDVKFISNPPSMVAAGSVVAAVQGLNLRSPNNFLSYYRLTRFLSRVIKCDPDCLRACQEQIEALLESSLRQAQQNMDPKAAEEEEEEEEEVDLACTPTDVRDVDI

A word on the pIC50: it is the negative decadic logarithm of the IC50, by convention in mol/L. In general, IC50 refers to the concentration needed to halve the response being measured. In turn, `N[C@H]1CC[C@H](Nc2nc(NC3CCN(C(=O)c4cccc(C(F)(F)F)c4)CC3)c3ncn(C4CCCC4)c3n2)CC1` [compound 3, dihydrochloride] showed a pIC50 on cdk4/cyclin D1 of 5.95. The concentration for half-maximal inhibition (IC50) in the assay on PC-3 was determined as 0.66 µM; with MDA-MB-435 it was 0.25 µM; in the assay on Jurkat it was 0.22 µM; against cdk1/cyclin B, 55 nM; in the assay on HL-60, 0.13 µM; at cdk2/cyclin E it was 48 nM. Besides, the “HL60 Mean Vol. ± SD” value in the assay with HL-60 Human Leukemia (dose 1 mg/kg ip) is 6370 ± 4655; with HL-60 Human Leukemia (dose 3 mg/kg ip), 6092 ± 4278. Also, the entries for the “PC-3 Mean Vol. ± SD” value in assay [1] (dose 1 mg/kg ip) and in assay [1] (dose 3 mg/kg ip) were 671 ± 672 and 785 ± 473, respectively.
Consider `CCOc1ccc(NC(=O)N2CCC(Nc3nc(N[C@H]4CC[C@H](N)CC4)nc4c3ncn4C3CCCC3)CC2)cc1` [compound 191, trans-4-[2-(4-Amino-cyclohexylamino)-9-cyclopentyl-9H-purin-6-ylamino]-piperidine-1-carboxylic acid (4-ethoxy-phenyl)-amide dihydrochloride], for which the pIC50 against cdk4/cyclin D1 is 6.53. Besides, the IC50 in the assay with PC-3 worked out at 0.24 µM; in the assay on MDA-MB-435, 0.25 µM; with Jurkat, 0.36 µM; in the assay with Colo-205 it was 0.07 µM; against cdk1/cyclin B it was 23 nM; in the assay with NCI-H460, 0.41 µM. Further, the values for the IC50 with HL-60 and against cdk2/cyclin E were < 0.02 µM and 36 nM, respectively.
For `COC(=O)c1ccccc1NC(=O)N1CCC(Nc2nc(N[C@H]3CC[C@H](N)CC3)nc3c2ncn3C2CCCC2)CC1` [compound 193, trans-2-[(1-{4-[2-(4-Amino-cyclohexylamino)-9-cyclopentyl-9H-purin-6-ylamino]-piperidin-1-yl}-methanoyl)-amino]-benzoic acid methyl ester dihydrochloride], on cdk4/cyclin D1, the pIC50 was 6.29. Besides, the concentration for half-maximal inhibition (IC50) in the assay with PC-3 stood at 0.18 µM; in the assay with MDA-MB-435 it was 0.17 µM; in the assay on Jurkat, 0.26 µM; in the assay with Colo-205 it was 0.18 µM; at cdk1/cyclin B it was 26 nM; in the assay on NCI-H460, 0.13 µM. Moreover, the IC50 was 0.03 µM in the assay on HL-60 and 8 nM at cdk2/cyclin E.
The compound `CCOC(=O)c1ccccc1NC(=O)N1CCC(Nc2nc(N[C@H]3CC[C@H](N)CC3)nc3c2ncn3C2CCCC2)CC1` [compound 199, trans-2-[(1-{4-[2-(4-Amino-cyclohexylamino)-9-cyclopentyl-9H-purin-6-ylamino]-piperidin-1-yl}-methanoyl)-amino]-benzoic acid ethyl ester dihydrochloride] had a pIC50 at cdk4/cyclin D1 of 6.17. Further, the IC50 with PC-3 worked out at 0.26 µM; in the assay with MDA-MB-435 it was 0.26 µM; in the assay with Jurkat, 0.34 µM; in the assay with Colo-205, 0.06 µM; against cdk1/cyclin B it was 70 nM; with NCI-H460, 0.18 µM. Besides, the IC50 with HL-60 came out at 0.06 µM; against cdk2/cyclin E, 20 nM.
Take `N[C@H]1CC[C@H](Nc2nc(NC3CCN(C(=O)Nc4cc(C(F)(F)F)ccc4F)CC3)c3ncn(C4CCCC4)c3n2)CC1` [compound 200, trans-4-[2-(4-Amino-cyclohexylamino)-9-cyclopentyl-9H-purin-6-ylamino]-piperidine-1-carboxylic acid (2-fluoro-5-trifluoromethyl-phenyl)-amide dihydrochloride]: the negative-log IC50 (pIC50) at cdk4/cyclin D1 was 6.22. In addition, the half-maximal inhibitory concentration (IC50) was found to be 0.16 µM with PC-3; 0.09 µM in the assay with MDA-MB-435; 0.21 µM with Jurkat; 0.06 µM in the assay on Colo-205; 10 nM on cdk1/cyclin B; 0.19 µM in the assay on NCI-H460. In addition, the IC50 is < 0.02 µM in the assay with HL-60 and 23 nM against cdk2/cyclin E.
In turn, `N[C@H]1CC[C@H](Nc2nc(NC3CCN(C(=O)Nc4ccc(F)cc4C(F)(F)F)CC3)c3ncn(C4CCCC4)c3n2)CC1` [compound 202, trans-4-[2-(4-Amino-cyclohexylamino)-9-cyclopentyl-9H-purin-6-ylamino]-piperidine-1-carboxylic acid (4-fluoro-2-trifluoromethyl-phenyl)-amide dihydrochloride] gave a pIC50 at cdk4/cyclin D1 of 6.17. Further, the IC50 with PC-3 came to 0.23 µM; in the assay with MDA-MB-435, 0.22 µM; with Jurkat, 0.53 µM; in the assay with Colo-205, 0.2 µM; at cdk1/cyclin B it was 137 nM; in the assay with NCI-H460, 0.33 µM. For the same compound, the IC50 is < 0.02 µM in the assay on HL-60 and 48 nM at cdk2/cyclin E.
Take `N[C@H]1CC[C@H](Nc2nc(NC3CCN(C(=O)Nc4ccc(F)c(C(F)(F)F)c4)CC3)c3ncn(C4CCCC4)c3n2)CC1` [compound 203, trans-4-[2-(4-Amino-cyclohexylamino)-9-cyclopentyl-9H-purin-6-ylamino]-piperidine-1-carboxylic acid (4-fluoro-3-trifluoromethyl-phenyl)-amide dihydrochloride]: on cdk4/cyclin D1, the pIC50 is 6.13. Further, the IC50 in the assay with PC-3 is 0.3 µM; with MDA-MB-435, 0.22 µM; in the assay with Jurkat, 0.5 µM; in the assay with Colo-205 it was 0.17 µM; against cdk1/cyclin B, 10 nM; with NCI-H460, 0.54 µM. For the same compound, the half-inhibitory concentration (IC50) with HL-60 was < 0.02 µM; against cdk2/cyclin E, 51 nM.
As for `N[C@H]1CC[C@H](Nc2nc(NC3CCN(C(=O)Nc4ccccc4F)CC3)c3ncn(C4CCCC4)c3n2)CC1` [compound 207, trans-4-[2-(4-Amino-cyclohexylamino)-9-cyclopentyl-9H-purin-6-ylamino]-piperidine-1-carboxylic acid (2-fluoro-phenyl)-amide dihydrochloride], at cdk4/cyclin D1, the negative logarithm of the IC50 (pIC50) was 7.36. The half-maximal inhibitory concentration (IC50) is 0.13 µM with PC-3; 0.11 µM in the assay with MDA-MB-435; 0.13 µM with Jurkat; 0.03 µM in the assay on Colo-205; 50 nM at cdk1/cyclin B; 0.14 µM with NCI-H460. Besides, the IC50 in the assay on HL-60 stood at 0.02 µM; on cdk2/cyclin E, 46 nM.
On cdk4/cyclin D1, `N[C@H]1CC[C@H](Nc2nc(NC3CCN(C(=O)Nc4ccc(Cl)c(Cl)c4)CC3)c3ncn(C4CCCC4)c3n2)CC1` [compound 209, trans-4-[2-(4-Amino-cyclohexylamino)-9-cyclopentyl-9H-purin-6-ylamino]-piperidine-1-carboxylic acid (3,4-dichloro-phenyl)-amide dihydrochloride] had a negative-log IC50 (pIC50) of 7.30. Also, the IC50 is 0.26 µM with PC-3; 0.17 µM in the assay on MDA-MB-435; 0.13 µM in the assay with Jurkat; 0.05 µM in the assay on Colo-205; 13 nM on cdk1/cyclin B; 0.29 µM with NCI-H460. The IC50 is < 0.02 µM in the assay on HL-60 and 34 nM on cdk2/cyclin E.
